Legend:
Test in all cases: relative viability (nuclei count vs DMSO), 5 days (fraction); higher = more cells survive
Carboplatin + OSI-027 = compound: C1CC(C1)(C(=O)O)C(=O)O.[NH2-].[NH2-].[Pt+2] [Carboplatin] + COc1cccc2cc(-c3nc([C@H]4CC[C@H](C(=O)O)CC4)n4ncnc(N)c34)[nH]c12 [OSI-027] (partner 0.5 µM)
Procedure, shortened: (§1)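 Values are medians from duplicate plates. Each reflects relative viability, defined as the nuclei count of treated wells over that of vehicle wells. Lung cancer cell lines in 1536-well plates were pin-tool dosed one day after seeding with one drug alone or with a fixed anchor-drug dose plus five library-drug doses (not always all listed) in √10 steps, then fixed, stained and imaged at 4× after 5 days.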

Carboplatin + Vorinostat = compound: C1CC(C1)(C(=O)O)C(=O)O.[NH2-].[NH2-].[Pt+2] [Carboplatin] + O=C(CCCCCCC(=O)Nc1ccccc1)NO [Vorinostat] (partner 1 µM)
Procedure, shortened: as §1

GSK126 + OSI-027 = compound: CC[C@H](C)N1C=C(C2=C(C=C(C=C21)C3=CN=C(C=C3)N4CCNCC4)C(=O)NCC5=C(C=C(NC5=O)C)C)C [GSK126] + COc1cccc2cc(-c3nc([C@H]4CC[C@H](C(=O)O)CC4)n4ncnc(N)c34)[nH]c12 [OSI-027] (partner 0.5 µM)
Procedure, shortened: as §1

MLN4924 + Alpelisib = compound: NS(=O)(=O)OC[C@@H]1C[C@@H](n2ccc3c(N[C@H]4CCc5ccccc54)ncnc32)C[C@@H]1O [MLN4924] + Cc1nc(NC(=O)N2CCC[C@H]2C(N)=O)sc1-c1ccnc(C(C)(C)C(F)(F)F)c1 [Alpelisib] (partner 2 µM)
Procedure, shortened: as §1

Row | Cell Line | relative viability (Carboplatin + OSI-027; first compound 0.08 µM) | relative viability (Carboplatin + OSI-027; first compound 0.253 µM) | relative viability (Carboplatin + OSI-027; first compound 0.8 µM) | relative viability (Carboplatin + OSI-027; first compound 2.53 µM) | relative viability (Carboplatin + OSI-027; first compound 8 µM) | relative viability (Carboplatin + Vorinostat; first compound 0.08 µM) | relative viability (Carboplatin + Vorinostat; first compound 0.253 µM) | relative viability (Carboplatin + Vorinostat; first compound 0.8 µM) | relative viability (Carboplatin + Vorinostat; first compound 2.53 µM) | relative viability (Carboplatin + Vorinostat; first compound 8 µM) | relative viability (GSK126 + OSI-027; first compound 0.08 µM) | relative viability (GSK126 + OSI-027; first compound 0.253 µM) | relative viability (GSK126 + OSI-027; first compound 0.8 µM) | relative viability (GSK126 + OSI-027; first compound 2.53 µM) | relative viability (GSK126 + OSI-027; first compound 8 µM) | relative viability (MLN4924 + Alpelisib; first compound 0.04 µM) | relative viability (MLN4924 + Alpelisib; first compound 0.1265 µM) | relative viability (MLN4924 + Alpelisib; first compound 0.4 µM) | relative viability (MLN4924 + Alpelisib; first compound 1.265 µM) | relative viability (MLN4924 + Alpelisib; first compound 4 µM)
1 | HCC-366 | 1.07 | 0.979 | 0.911 | 0.955 | 0.486 | 0.451 | 0.311 | 0.317 | 0.29 | 0.114 | 1.2 | 0.754 | 0.868 | 0.927 | 0.847 | 0.58 | 0.733 | 0.877 | 0.369 | 0.027
2 | PC-14 | 0.864 | 0.923 | 0.716 | 0.369 | 0.133 | 0.862 | 0.783 | 0.582 | 0.234 | 0.142 | 1.06 | 0.854 | 0.757 | 0.939 | 0.83 | 0.929 | 0.904 | 0.826 | 0.177 | 0.0924
3 | NCI-H441 | 0.715 | 0.668 | 0.767 | 0.696 | 0.451 | 0.865 | 0.835 | 0.588 | 0.785 | 0.369 | 0.949 | 0.686 | 0.637 | 0.677 | 0.543 | 0.549 | 0.526 | 0.296 | 0.123 | 0.168
4 | NCI-H1395 | 0.83 | 0.597 | 0.674 | 0.527 | 0.52 | 1.03 | 0.638 | 0.847 | 0.644 | 0.502 | 0.679 | 0.561 | 0.648 | 0.704 | 0.649 | 1.05 | 0.812 | 0.553 | 0.343 | 0.365

Reference: the supplement of paper PMC10307832
